Data taken from US20190256827A1, “EPIGENOME EDITING SYSTEMS AND METHODS” (STC.UNM, priority 2017, published 2019).

Assays:
Format in all cases: cell-based, human
[1] = test system: IL1RN mRNA in HEK293T cells; test: qPCR of IL1RN mRNA levels (dCas9-PYL-HA, FLAG-ABI-P300, sgRNAs)
Experimental: To study how IL1RN expression levels change, total RNAs from the cell lysates generated in the above experiment were purified and then subjected to qPCR analysis to quantify mRNA levels.
Human embryonic kidney cell HEK293T (American Type Culture Collection, Manassas, Va.) was cultured in Dulbecco's modified Eagle's medium (DMEM) (Gibco) with 10% FBS (Atlanta Biologicals), 1× GlutaMax (Gibco, Thermo Fisher Scientific, Inc., Waltham, Mass.), and 1× penicillin/streptomycin (Pen/Strep; Gibco, Thermo Fisher Scientific, Inc., Waltham, Mass.). Cells (100,000/ml) were plated in 24-well or 10-cm cell culture plate the day before transfection. For each well of 24-well plate transfection, 500 ng of dCas9-PYL-HA, 420 ng of FLAG-ABI-P300, and a total amount of 200-ng mix of gRNAs, with a 50-ng per each gRNA, were mixed with 50×(v/w) Opti-MEM (Gibco, Thermo Fisher Scientific, Inc., Waltham, Mass.), then incubate with the same volume of 3 μg PEI-Opti-MEM solution for 20 minutes at room temperature. Then, 100 μL of PEI-combined plasmids were added to every single well of 24-well plate and cultured for 24 hours before experiments were performed. For a 10 cm plate, 1 mL of PEI-combined plasmids were needed. After six hours transfection, cells were washed and incubated for another 1-72 hours before experiments were performed.
Total RNA was extracted using the EZNA Total RNA Kit I (Omega Bio-tek, Inc., Norcross, Ga.). qPCR reactions were performed on cDNA prepared from 1,000 ng of total cellular RNA using the High-Capacity cDNA Reverse Transcription Kit (Applied Biosystems Co., Thermo Fisher Scientific, Inc., Foster City, Calif.). TaqMan qPCR probes (Thermo Fisher Scientific, Inc., Waltham, Mass. IL1RN, Hs00893626; GRM2, Hs00968358; HBA, Hs00361191; MYOD1 Hs02330075; GAPDH, Hs99999905) and Fast Advanced Master Mix (Life Technologies Co., Co., Thermo Fisher Scientific, Inc., Carlsbad, Calif.) were used in multiplexed reactions and 384-well format in a 7900HT Fast Real-Time PCR System (Applied Biosystems Co., Thermo Fisher Scientific, Inc., Foster City, Calif.). All measurements were performed at least in triplicate. Data were analyzed using the SDS software, version 2.4 (Applied Biosystems Co., Thermo Fisher Scientific, Inc., Foster City, Calif.), by the ΔΔCt method: the Ct values of target gene were normalized to Ct values of GAPDH, the folds of target gene expression changes were normalized to experimental controls. Analyzed data are reported as the mean±s.e.m. for biological replicates. In ChIP assays, the Ct values of antibodies pulled down segments were normalized to the Ct values of 10% input.

[2] = test system: TIR1*/AID dimerization, inducible EGFP reporter in HEK293T cells; test: IAA-inducible EGFP transcriptional activation assay (GAL4DBD-TIR1* or GAL4DBD-TIR1^WT with VP16AD-AID); details: with or without IAA for 24 hours
Text: Based on sequence alignment analysis against Arabidopsis thaliana TIR1, a mutant form of Oryza sativa TIR1 (TIR1*) was engineered. TIR1* contained a double mutation, where glutamic acid residues at position 7 and position 10 were replaced with lysine residues (YFPEKVVKHIFSFL, SEQ ID NO:125) that inhibited the ability of TIR* to interact with the SCF complex. To test if TIR1* indeed no longer mediated IAA-induced degradation, but would still bind to AID in the presence of IAA, an IAA-inducible EGFP transcriptional activation assay was constructed. In this assay, EGFP would only be expressed when a functional transcriptional activator was reconstituted by IAA from the two split halves (a DNA binding domain, DBD, and an activation domain, AD, each linked to an IAA-dimerizable protein, TIR* and AID). DNA constructs were made that encoded fusion proteins of GAL4DBD-TIR1*, GAL4DBD-TIR1^WT (the mutant (TIR*) and the wild type TIR1 (TIR1^WT) fused to DBD from GAL4, respectively) and VP16AD-AID (AID fused to VP16 AD). If the AID fusion protein was degraded or the dimerization of TIR1 and AID was disrupted, no EGFP expression would occur. Either GAL4DBD-TIR1* or GAL4DBD-TIR1^WT was co-transfected with VP16AD-AID and an inducible EGFP reporter construct that contains 5×GALDBD binding sites into HEK293T cells with or without the addition of IAA for 24 hours.

[3] = test system: GAL4DBD-TIR1*/VP16AD-AID, inducible luciferase reporter in HEK293T cells; test: Inducible luciferase reporter assay, IAA-responsive system (orthogonality and reversibility)
Experimental: To ensure that IAA and ABA could be used to independently control two histone modification editing events, the orthogonality between these two systems was tested. HEK293T cells were co-transfected with either GAL4DBD-TIR1*/VP16AD-AID (responsive to IAA) or GAL4DBD-ABI/VP16AD-PYL (responsive to ABA), and an inducible luciferase reporter construct. This was followed by treating cells with either IAA or ABA (or DMSO as a control) for 24 hours. […] To test the reversibility of IAA-induced dimerization, in which it was critical to achieve precise temporal control, HEK293T cells were co-transfected with GAL4DBD-TIR1*, VP16AD-AID, and an inducible luciferase expression construct, and then treated cells with 50 μM IAA for 24 hours. Cells were then washed with fresh media without IAA to remove the inducer (or no washing as a control). They were then harvested for luciferase assays after washing.

Compound | IL1RN mRNA expression with caged ABA, no UV light ([1]; 20 μM ABA-DMNB, not irradiated, vs DMSO) | IL1RN mRNA levels after uncaging by UV light ([1]; ABA-DMNB uncaged by exposure to UV light) | expression of EGFP [2] | reversibility of IAA-induced luciferase expression after washing ([3]; 50 μM IAA for 24 hours, then washed with fresh media without IAA) | luciferase expression, IAA-responsive system ([3]; treated with IAA or ABA or DMSO for 24 hours)
COc1cc(COC(=O)/C=C(C)\C=C\[C@@]2(O)C(C)=CC(=O)CC2(C)C)c([N+](=O)[O-])cc1OC [ABA-DMNB] | at levels of negative control (DMSO) | mRNA levels increased | – | – | –
O=C(O)Cc1c[nH]c2ccccc12 [IAA, indole-3-acetic acid] | – | – | Only the combination of the TIR1 mutant TIR* and the IAA addition induced the expression of EGFP | readily reversible | Only the proper combination of inducer with corresponding binding proteins could induce luciferase expression
